Data from patent EP0500785B1, “A HUMAN T CELL REACTIVE FELINE PROTEIN (TRFP) ISOLATED FROM HOUSE DUST AND USES THEREFOR” (IMMULOGIC PHARMACEUTICAL CORPORATION, priority 1989, dated 2002).

Tested on: TRFP primed T cell cultures
Experiment: T cell proliferation assay (tritiated thymidine incorporation) of TRFP-primed T cells restimulated with allergens or peptides
Format: cell-based, human
Description: Peripheral blood mononuclear cells (PBMC) were purified from 60 ml of heparinized blood from cat allergic patients. PBMC were subsequently treated as described below, although in individual cases, the length of time of cultivation with IL-2 and/or IL-4 and the specific peptides used for stimulation varied.
10 ml of PBMC from patient 131 at 10^6/ml were cultured at 37°C for 7 days in the presence of 5 micrograms purified TRFP/ml RPMI-1640 supplemented with 5% pooled human AB serum. Viable cells were purified by Ficoll-Hypaque centrifugation and cultured for three weeks at 5 units recombinant human IL-2/ml and 5 units recombinant human IL-4/ml. The resting T cells were then restimulated (secondary) with 5 micrograms TRFP at 2 x 10^5/ml in the presence of irradiated (3500 Rads) autologous PBMC at a concentration of 5 x 10^5/ml for three days, purified by Ficoll-Hypaque centrifugation and grown in 5 units IL-2 and 5 units IL-4/ml for two weeks. For assay, 2 x 10^4 resting secondary T cells were restimulated (tertiary) in the presence of 5 x 10^4 irradiated (3500 Rads) autologous PBMC or 2 x 10^4 transformed B cells (20,000 Rads) with various concentrations of allergens or their fragments in a volume of 200 microliters in a 96-well round bottom assay plates for 3 days. Each well then received 1 microCurie tritiated (methyl) thymidine for 16 hours. The counts incorporated were collected onto glass fiber filters and processed for liquid scintillation counting.
Antigens used: T cell reactive feline protein (TRFP), Hollister-Stier cat epithelium skin test reagent (CST), IPC ragweed pollen extract (pollen), and synthetic peptides derived from the TRFP protein sequence (See Figures 6 and 7). Significant T cell proliferation is generally regarded as greater than 2.5 times the media control (T cells and antigen presenting cells alone).
Alternatively, PBMC were treated as follows: the primary stimulated cells were cultured in IL-2/IL-4 for two weeks. The resting T cells derived from this culture were tested in a secondary assay with some, but not all, of the above allergens. […] This type of epitope analysis has allowed the definition of T cell epitopes present in TRFP.

[1] = Chain #2 TRFP peptides, cat allergic patients, average SI of responding patients multiplied by percent positive
[2] = Chain #2 TRFP peptides, cat allergic patients, average of responding patients
[3] = Chain #1 TRFP peptides, average cpm with antigen divided by cpm of T cells and antigen presenting cells alone, responding patients, SI ≥ 2.5 positive
[4] = Chain #1 TRFP peptides, cat allergic patients, average SI of all responding patients multiplied by percent of patients with a positive response

Substance	PI [1]	SI [2]	SI [3]	PI [4]
Fel 31-7: TRFP chain 2 peptide, amino acids 15 - 36 (FAVANGNELLLDLSLTKVNATE; UniProt P30440 32-53, looked up, fragment)	267	5.8		
Fel 31-2: TRFP chain 2 peptide, amino acids 14 - 39 (FFAVANGNELLLDLSLTKVNATEPER; UniProt P30440 31-56, looked up, fragment)	599	8.1		
Fel 3-11: TRFP chain 1 peptide, amino acids 18 - 30 (PDEYVEQVAQYKA; UniProt P30438 40-52, looked up, fragment)			10.4	863
Fel 31-6: TRFP chain 2 peptide, amino acids 15 - 40 (FAVANGNELLLDLSLTKVNATEPERT; UniProt P30440 32-57, looked up, fragment)	295	4.4		
Fel 23: TRFP chain 1 peptide, amino acids 51 - 66 (EEDKENALSVLDKIYT; UniProt P30438 73-88, looked up, fragment)			6.6	343
Fel 30-8: TRFP chain 1 peptide, amino acids 28 - 55 (YKALPVVLENARILKNCVDAKMTEEDKE; UniProt P30438 50-77, looked up, fragment)			4.1	262
Fel 31-5: TRFP chain 2 peptide, amino acids 14 - 36 (FFAVANGNELLLDLSLTKVNATE; UniProt P30440 31-53, looked up, fragment)	539	7.6		
Fel 31-4: TRFP chain 2 peptide, amino acids 14 - 37 (FFAVANGNELLLDLSLTKVNATEP; UniProt P30440 31-54, looked up, fragment)	622	8.4		
Fel 14-5: TRFP chain 1 peptide, amino acids 27 - 36 (QYKALPVVLE; UniProt P30438 49-58, looked up, fragment)			5.4	286
Fel 31-1: TRFP chain 2 peptide, amino acids 14 - 40 (FFAVANGNELLLDLSLTKVNATEPERT; UniProt P30440 31-57, looked up, fragment)	733	9.4		
Fel 32-2: TRFP chain 2 peptide, amino acids 14 - 24 (FFAVANGNELL; UniProt P30440 31-41, looked up, fragment)	424	5.3		
Fel 14-4: TRFP chain 1 peptide, amino acids 26 - 36 (AQYKALPVVLE; UniProt P30438 48-58, looked up, fragment)			6.0	474
Fel 15: TRFP chain 1 peptide, amino acids 44 - 60 (CVDAKMTEEDKENALSV; UniProt P30438 66-82, looked up, fragment)			11.0	440
Fel 14-2: TRFP chain 1 peptide, amino acids 29 - 42 (KALPVVLENARILK; UniProt P30438 51-64, looked up, fragment)			5.6	336
Fel 8-1: TRFP chain 1 peptide, amino acids 5 - 33 (AVKRDVDLFLTGTPDEYVEQVAQYKALPV; UniProt P30438 27-55, looked up, fragment)			15.1	1374
Fel 30-2: TRFP chain 1 peptide, amino acids 25 - 48 (VAQYKALPVVLENARILKNCVDAK; UniProt P30438 47-70, looked up, fragment)			4.2	248
Fel 30-3: TRFP chain 1 peptide, amino acids 25 - 47 (VAQYKALPVVLENARILKNCVDA; UniProt P30438 47-69, looked up, fragment)			4.8	230
Fel 32-1: TRFP chain 2 peptide, amino acids 12 - 24 (DVFFAVANGNELL; UniProt P30440 29-41, looked up, fragment)	442	6.6		
Fel 30-5: TRFP chain 1 peptide, amino acids 29 - 54 (KALPVVLENARILKNCVDAKMTEEDK; UniProt P30438 51-76, looked up, fragment)			11.0	792
Fel 1-2: TRFP chain 1 peptide, amino acids 1 - 17 (EICPAVKRDVDLFLTGT; UniProt P30438 23-39, looked up, fragment)			7.4	311
Fel 3-1: TRFP chain 1 peptide, amino acids 18 - 33 (PDEYVEQVAQYKALPV; UniProt P30438 40-55, looked up, fragment)			9.4	638
Fel 30-4: TRFP chain 1 peptide, amino acids 29 - 55 (KALPVVLENARILKNCVDAKMTEEDKE; UniProt P30438 51-77, looked up, fragment)			11.6	1079
Fel 8-2: TRFP chain 1 peptide, amino acids 6 - 33 (VKRDVDLFLTGTPDEYVEQVAQYKALPV; UniProt P30438 28-55, looked up, fragment)			15.2	1353
Fel 3-15: TRFP chain 1 peptide, amino acids 18 - 29 (PDEYVEQVAQYK; UniProt P30438 40-51, looked up, fragment)			10.4	1040
Fel 14-1: TRFP chain 1 peptide, amino acids 23 - 36 (EQVAQYKALPVVLE; UniProt P30438 45-58, looked up, fragment)			9.9	871
Fel 3-13: TRFP chain 1 peptide, amino acids 18 - 28 (PDEYVEQVAQY; UniProt P30438 40-50, looked up, fragment)			11.5	690
Fel 30-7: TRFP chain 1 peptide, amino acids 26 - 55 (AQYKALPVVLENARILKNCVDAKMTEEDKE; UniProt P30438 48-77, looked up, fragment)			5.3	339
